Assay results as given in patent US20230192617A1, “AZABICYCLIC(THIO)AMIDES AS FUNGICIDAL COMPOUNDS” (Bayer CropScience Aktiengesellschaft, priority 2020, published 2023).

Legend:
[1] = Measurement of Log P values by HPLC on reversed phase columns (EEC directive 79/831 Annex V.A8); assay type: physicochemical; settings: reversed phase HPLC column, method [a]: LC-UV, acidic range, 0.1% formic acid in water and acetonitrile as eluent
In short: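 Reversed-phase HPLC with UV detection per EEC 79/831 Annex V.A8, linear 10–95% acetonitrile gradient. Aqueous eluent: 0.1% formic acid (acidic), 0.001 M ammonium acetate (neutral), or 0.1% phosphoric acid (acidic); multiple values in one method joined by "+".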

Alternaria brassicae = assay: In vivo preventive test on Alternaria brassicae (leaf spot on radish or cabbage); settings: 500 ppm of active ingredient, preventive spray on radish or cabbage, evaluated 3 to 4 days after inoculation, read-out: efficacy
In short: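 Young radish or cabbage plants were sprayed with compound dissolved in DMSO/acetone/Tween 80 and diluted in water; controls received solvent only. Inoculation by spraying A. brassicae spore suspension 24 h later, then 3–4 days at 20 °C and 100% relative humidity.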

Sphaerotheca fuliginea = assay: In vivo preventive test on Sphaerotheca fuliginea (powdery mildew on cucurbits); settings: Podosphaera fuliginea, 192 h; 500 ppm of active ingredient; preventive spray on gherkin; evaluated 8 days after inoculation; read-out: efficacy
In short: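 Young gherkin plants were sprayed with compound in DMSO/acetone/Tween 80 diluted in water. They were inoculated 24 h later with a spore suspension of Sphaerotheca fuliginea. Plants were then kept for 8 days at 20 °C and 70–80% relative humidity.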

| SMILES | chromatographic logP [1] | pest or weed control at 500 ppm (Alternaria brassicae) [%] | pest or weed control at 500 ppm (Sphaerotheca fuliginea) [%] |
| --- | --- | --- | --- |
| O=C(NC[C@H](F)c1ccc(Cl)cc1Cl)c1c(Oc2cccc(C(F)(F)F)c2)cnc2ccoc12 (racemic) [I-067] | 4.18 | 90 to 100 | 90 to 100 |
| Cc1ccc(C(F)(F)CNC(=O)c2c(Oc3cccc(C4CC4)c3F)nnc3ccccc23)c(C)c1 [I-071, 3-(3-cyclopropyl-2-fluoro-phenoxy)-N-[2-(2,4-dimethyl-phenyl)-2,2-difluoro-ethyl]cinnoline-4-carboxamide] | 4.54 | 90 to 100 | 90 to 100 |
| Cc1ccc(C(F)(F)CNC(=O)c2c(Oc3cccc(C4CC4)c3F)nnc3c2CCCC3)c(C)c1 [I-131] | 4.23 | 90 to 100 | 90 to 100 |
| Cc1ccc(C(F)CNC(=O)c2c(Oc3cccc(C4CC4)c3F)nnc3c2CCCC3)c(C)c1 (stereo not drawn) [I-137] | 4 | 90 to 100 | 90 to 100 |
| O=C(NCC(F)c1ccc(Cl)cc1Cl)c1c(Oc2cccc(C(F)(F)F)c2)nnc2c1COCC2 (stereo not drawn) [I-126] | 3.75 | 90 to 100 | 90 to 100 |
| Cc1ccc(C(F)(F)CNC(=O)c2c(Oc3cccc(C4CC4)c3F)nnc3c2CCC3)c(C)c1 [I-134] | 4.17 | 90 to 100 | 90 to 100 |
| Cc1ccc(C(F)CNC(=O)c2c(Oc3cccc(Cl)c3F)nnc3c2CCCC3)c(C)c1 (stereo not drawn) [I-136] | 3.78 | 90 to 100 | 90 to 100 |
| Cc1ccc(C(F)(F)CNC(=O)c2c(Oc3cccc(C(F)(F)F)c3)nnc3c2CCC3)c(Cl)c1 [I-142] | 3.94 | 90 to 100 | 90 to 100 |

More lines, main results first:

| chromatographic logP [1] | SMILES | pest or weed control at 500 ppm (Alternaria brassicae) [%] | pest or weed control at 500 ppm (Sphaerotheca fuliginea) [%] |
| --- | --- | --- | --- |
| 3.63 | Cc1ccc(C(F)(F)CNC(=O)c2c(Oc3cccc(C(F)F)c3)nnc3c2CCCC3)c(Cl)c1 [I-243] | 90 to 100 | 90 to 100 |
| 4.05 | Cc1ccc(C(F)(F)CNC(=O)c2c(Oc3cccc(C4CC4)c3F)nnc3c2CCC3)c(Cl)c1 [I-144] | 90 to 100 | 90 to 100 |
| 4 | Cc1cc(Cl)ccc1C(F)(F)CNC(=O)c1c(Oc2cccc(Cl)c2F)nnc2c1CCC2 [I-148] | 90 to 100 | 90 to 100 |
| 3.85 | O=C(NCC(F)(F)c1ccc(Cl)cc1Cl)c1c(Oc2cccc(C(F)(F)F)c2)nnc2c1COCC2 [I-228] | 90 to 100 | 90 to 100 |
| 4.44 | Cc1cc(Br)ccc1C(F)(F)CNC(=O)c1c(Oc2cccc(Cl)c2F)nnc2c1CCCC2 [I-152] | 90 to 100 | 90 to 100 |
| 3.84 | Cc1ccc(C(F)(F)CNC(=O)c2c(Oc3cccc(Cl)c3F)nnc3c2CCC3)c(Cl)c1 [I-143] | 90 to 100 | 90 to 100 |
